Measured values reported in PMC6283615, “Anilinoquinoline based inhibitors of trypanosomatid proliferation” (PLoS Neglected Tropical Diseases, 2018).
Values after ≈ are worked out from the molar mass of the structure shown.

Assays:
NIH/3T3 cells = experiment: Drug toxicity to 3T3 cells (Alamar Blue, 96 h); assay type: cell-based
Description: In a 96-well plate, 5×10^4 NIH/3T3 (ATCC CRL-1658) cells (purchased from ATCC) in DMEM without phenol red supplemented with 2% FBS were added to each well. Cells were incubated for 2 h to allow for attachment. Compounds were added in triplicates at 200 μM and in serial dilutions 1:2 and incubated at 37°C, 5% CO2 for 96 h. […] Following incubation, 10 μL of Alamar Blue (ThermoFisher) were added to each well and cells incubated at 37°C, 5% CO2 for 4 h. Absorbance was read at 590–595 nm.

[1] = tested on: T. b. brucei (strain 427); experiment: T. b. brucei proliferation assay (PrestoBlue, 48 h); assay type: cell-based, Trypanosoma brucei brucei
Description: The assay was performed following a previously reported procedure. Briefly, in a 96-well plate, compounds were added in triplicates at 50 μM and in serial dilutions 1:2 in HMI-9 medium. To each well, 100 μL of 2.5×10^3 T. b. brucei (strain 427, received as a gift from Dr. C. C. Wang at UCSF) in HMI-9 medium was were added and incubated at 37°C, 5% CO2 for 48 h. Following incubation, 20 μL of PrestoBlue were added to each well and incubated for additional 4 h. Fluorescence was read at 530 nm excitation and 590 nm emission.

[2] = Human liver microsome intrinsic clearance; assay type: in vitro ADME
L. major amastigote = experiment: L. major intracellular amastigote luciferase assay in RAW 264.7 macrophages; assay type: cell-based, Leishmania major; settings: intracellular amastigotes in RAW 264.7 macrophages, 96 h
Description: Amastigote assays were performed using pLEXSY-hyg2-luciferase L. major transfected promastigotes and the murine RAW 264.7 macrophage cell line (ATCC TIB-71, Manassas, VA). Briefly, luciferase-expressing promastigotes of each Leishmania species were generated by adding a luciferase encoding region to the pLEXSY-hyg2 vector (Jena Biosciences, Germany) as described. One μg of the linearized pLEXSY-hyg2-luciferase vector were electroporated (480 V, 13 Ω, and 500 μF) into 4×10^7 Leishmania promastigotes. Selection for stable promastigote transfectants was carried out using hygromycin B (100 μg/mL). RAW 264.7 macrophages were maintained in growth medium (Dulbecco’s Modified Eagle’s Medium supplemented with heat-inactivated 10% FBS (Life Technologies)). Cells were harvested and resuspended in growth medium at 2.0×10^5 cells/mL, and 1×10^4 cells/well were dispensed (final volume 50 μL) in each well of a 384 well tissue-culture treated white plate using a EVO Freedom liquid handling system (Tecan, Durham, NC). Plates were incubated at 37°C in 5% CO2 for 24 h after which the culture medium was removed from each well using the EVO Freedom liquid handler. Metacyclic phase pLEXSY-hyg2-luciferase-Leishmania promastigotes (MOI = 1:10 L. major) were added to each assay plate well and allowed to infect the RAW 264.7 macrophages. After an overnight incubation, the growth medium was aspirated and each well was washed three times with 40 μL of fresh growth medium to remove non-internalized promastigotes. After the third wash, 69.2 μL of growth medium was added to each well. Compound dilutions (final concentration ranges 0.5–10,000 ng/mL) were generated and dispensed using the liquid handling system. Compound treated plates were incubated at 37°C in 5% CO2 for 96 h. After incubation, 7.5 μL of a luciferin solution (Caliper Life Science, Waltham, MA) diluted to 150 μg/mL was added to each well, and the plates were incubated for 30 min at 37°C in the dark. Data were captured using an Infinite M200 plate reader (Tecan). EC50s were generated for each concentration response test using GraphPad Prism software 6.0.

[3] = tested on: T. cruzi amastigote (Tulahuen strain expressing β-galactosidase); experiment: Intracellular T. cruzi assay in 3T3 cells (beta-galactosidase, 96 h); assay type: cell-based, Trypanosoma cruzi; settings: intracellular in 3T3 cells, 96 h; read-out: T. cruzi amastigote EC50
Description: In a 96-well plate, 5×10^4 3T3 cells in DMEM without phenol red supplemented with 2% FBS were added to each well. Cells were incubated for 2 h to allow for attachment. Compounds were added in triplicates at 50 μM and in serial dilutions 1:2. To each well, 5×10^4 T. cruzi trypomastigotes (Tulahuen strain expressing β-galactosidase) were added and incubated at 37°C, 5% CO2 for 96 h. Following incubation, 50 μL of 500 μM chlorophenol Red-β-D-galactopyranoside (CPRG) in phosphate-buffered saline with 0.5% NP40 was added to each well and incubated at 37°C, 5% CO2 for 4 h. Absorbance was read at 590–595 nm.

HepG2 cells = experiment: Drug toxicity to HepG2 cells (MTT, 48 h); assay type: cell-based, human; settings: tested concentration ranges based on compound solubility
Description: HepG2 cells were cultured in complete Minimal Essential Medium prepared by supplementing MEM with 0.19% sodium bicarbonate, 10% heat inactivated FBS, 2 mM L-glutamine, 0.1 mM MEM non-essential amino, 0.009 mg/mL insulin, 1.76 mg/mL bovine serum albumin, 20 units/mL penicillin–streptomycin, and 0.05 mg/mL gentamycin. HepG2 cells cultured in complete MEM were first washed with 1× Hank’s Balanced Salt Solution (Invitrogen #14175095), trypsinized using a 0.25% trypsin/EDTA solution, assessed for viability using trypan blue, and resuspended at 250,000 cells/mL. Using a Tecan EVO Freedom robot, 38.3 μL of cell suspension were added to each well of clear, cell culture-treated 384-well microtiter plates for a final concentration of 9570 liver cells per well, and plated cells were incubated overnight in 5% CO2 at 37°C. Drug plates were prepared with the Tecan EVO Freedom using sterile 96 well plates containing twelve duplicate 1.6-fold serial dilutions of each test compound suspended in DMSO. 4.25 μL of diluted test compound was then added to the 38.3 μL of media in each well providing a […] final dilution of compound. Compounds were tested from a range of 57 ng/mL to 10,000 ng/mL for all assays. Mefloquine was used as a plate control for all assays with a concentration ranging from 113 ng/mL to 20,000 ng/mL. After a 48 h incubation period, 8 μL of a 1.5 mg/mL solution of MTT diluted in complete MEM media was added to each well. All plates were subsequently incubated in the dark for 1 h at room temperature. After incubation, the media and drugs in each well was removed by shaking the plate over sink, and the plates were left to dry in a fume hood for 15 mins. Next, 30 μL of isopropanol acidified by addition of HCl at a final concentration of 0.36% was added to dissolve the formazan dye crystals created by reduction of MTT. Plates are put on a 3-D rotator for 15–30 mins. Absorbance was determined in all wells using a Tecan iControl 1.6 Infinite plate reader.

[4] = Rat hepatocyte intrinsic clearance; assay type: in vitro ADME
LogD7.4 = assay type: physicochemical; settings: pH 7.4
Aqueous solubility = assay type: physicochemical
[5] = Human plasma protein binding; assay type: in vitro ADME

| SMILES | 3T3 TC50 (NIH/3T3 cells) [µM] | EC50 [1] [µM] | Human Liver Microsome CLint [2] [µL/min/mg] | EC50 (L. major amastigote) [µM] | EC50 [3] [µM] | HepG2 TC50 (HepG2 cells) [µM] | Rat Hepatocyte CLint [4] [μL/min/10^6 cells] | LogD7.4 (LogD7.4) | solubility (Aqueous solubility) [µM] | Human PPB [5] [%] |
| --- | --- | --- | --- | --- | --- | --- | --- | --- | --- | --- |
| COc1ccc(Nc2ccnc3cc(Nc4ccnc(N5CCN(C)CC5)n4)ccc23)cc1Cl [NEU-2093] | 15 | 0.34 | 45 | 4.6 | 8.1 | 4.7 | 2.3 | – | – | – |
| Cn1cc(-c2ccc3c(Nc4cnccn4)ccnc3c2)cn1 [NEU-2129] | 37 | 3.3 | 25 | 33 | 2.4 | 40 | 290 | 2.9 | 4 (≈ 1.21 µg/mL) | – |
| COc1ccc(Nc2ccnc3cc(-c4cnn(C)c4)ccc23)cc1Cl [NEU-2130] | > 100 | 2.6 | – | 29 | 1.9 | 44 | – | – | – | – |
| c1coc(-c2ccc3c(Nc4cnccn4)ccnc3c2)c1 [NEU-2131] | > 100 | 4.8 | 160 | 35 | 4.7 | 53 | – | 3.8 | 6 (≈ 1.73 µg/mL) | 98 |
| Cn1cc(Nc2ccc3c(Nc4cnccn4)ccnc3c2)cn1 [NEU-2143] | > 50 | 14 | 10 | 28 | > 50 | 29 | 66 | 1.9 | – | 63 |
| Cc1n[nH]c(C)c1Nc1ccc2c(Nc3cnccn3)ccnc2c1 [NEU-2146] | > 100 | 17 | 8 | 27 | > 50 | 40 | 120 | 1.8 | – | 68 |
| Cc1cc(Nc2ccc3c(Nc4cnccn4)ccnc3c2)sn1 [NEU-2148] | > 100 | 7.6 | 28 | 4.7 | > 50 | 36 | 9 | 3.5 | 2 (≈ 0.669 µg/mL) | – |
| Cc1cc(Nc2ccc3c(Nc4cnccn4)ccnc3c2)on1 [NEU-2150] | > 100 | 29 | – | 31 | 21 | 48 | – | – | – | – |
| Cc1nnc(Nc2ccc3c(Nc4cnccn4)ccnc3c2)nc1C [NEU-2151] | > 100 | 2.3 | – | 26 | > 50 | 22 | – | – | – | – |
